Data: US20100087649A1, “QUINOLINONE DERIVATIVES” (priority 2006, published 2010)

Tests used:
[1] = system: wild-type HIV-IIIB strain; assay: Antiviral analysis EGFP: anti-HIV activity in MT4 LTR-EGFP cells; assay type: cell-based, HIV-1; conditions: fluorescence of HIV-infected cells reduced by 50%, three days after infection
Description: The compounds of the present invention were tested for anti-viral activity in a cellular assay, which was performed according to the following procedure.
The human T-cell line MT4 is engineered with Green Fluorescent Protein (GFP) and an HIV-specific promoter, HIV-1 long terminal repeat (LTR). This cell line is designated MT4 LTR-EGFP, and can be used for the in vitro evaluation of anti-HIV activity of investigational compounds. In HIV-1 infected cells, the Tat protein is produced which upregulates the LTR promotor and finally leads to stimulation of the GFP reporter production, allowing measuring ongoing HIV-infection fluorometrically.
(§1) Effective concentration values such as 50% effective concentration (EC50) can be determined and are usually expressed in μM. An EC50 value is defined as the concentration of test compound that reduces the fluorescence of HIV-infected cells by 50%. The 50% cytotoxic concentration (CC50 in μM) is defined as the concentration of test compound that reduces fluorescence of the mock-infected cells by 50%. The ratio of CC50 to EC50 is defined as the selectivity index (SI) and is an indication of the selectivity of the anti-HIV activity of the inhibitor. The ultimate monitoring of HIV-1 infection and cytotoxicity is done using a scanning microscope. Image analysis allows very sensitive detection of viral infection. Measurements are done before cell necrosis, which usually takes place about five days after infection, in particular measurements are performed three days after infection.
The following Table 5 lists EC50 values, expressed in micromole/liter, against wild-type HIV-IIIB strain, for a selected number of compounds of the invention.

MT4 CMV-EGFP cells = assay: Cytotoxicity in mock-infected MT4 CMV-EGFP cells; assay type: cell-based, human; conditions: fluorescence reduced by 50%
Text: Analogously, MT4 cells are engineered with GFP and the constitutional cytomegalovirus (CMV) promotor. This cell line is designated MT4 CMV-EGFP, and can be used for the in vitro evaluation of cytotoxicity of investigational compounds. In this cell line, GFP levels are comparably to those of infected MT4 LTR-EGFP cells. Cytotoxic investigational compounds reduce GFP levels of mock-infected MT4 CMV-EGFP cells.
as §1

Row | Compound | EC50 [1] | CC50 (MT4 CMV-EGFP cells)
1 | CN(C)CCOc1ccc2cc(C#N)c(=O)n(-c3ccc([N+](=O)[O-])cc3)c2c1 [compound 62] | 4290 nM | > 32 µM
2 | CN(C)CCCOc1ccc2cc(C#N)c(=O)n(-c3ccc([N+](=O)[O-])cc3)c2c1 [compound 64] | 470 nM | 70.6 µM
3 | CCNCCCOc1ccc2cc(C#N)c(=O)n(-c3ccc([N+](=O)[O-])cc3)c2c1 [compound 65] | 260 nM | 69 µM
4 | CCN(CC)CCCOc1ccc2cc(C#N)c(=O)n(-c3ccc([N+](=O)[O-])cc3)c2c1 [compound 66] | 1260 nM | > 32 µM
5 | N#Cc1cc2ccc(OCCCN3CCCCC3)cc2n(-c2ccc([N+](=O)[O-])cc2)c1=O [compound 67] | 1170 nM | > 32 µM
6 | CCC(CC)NCCCOc1ccc2cc(C#N)c(=O)n(-c3ccc([N+](=O)[O-])cc3)c2c1 [compound 68] | 730 nM | 51.6 µM
7 | CC(=O)NCCCOc1ccc2cc(C#N)c(=O)n(-c3ccc([N+](=O)[O-])cc3)c2c1 [compound 69] | 10200 nM | > 100 µM
8 | N#Cc1cc2ccc(OCCCNCCO)cc2n(-c2ccc([N+](=O)[O-])cc2)c1=O [compound 72] | 930 nM | > 32 µM
9 | N#Cc1cc2ccc(OCCCN3CCCC3)cc2n(-c2ccc([N+](=O)[O-])cc2)c1=O [compound 73] | 420 nM | 36.4 µM
10 | N#Cc1cc2ccc(OCCO)cc2n(-c2ccc([N+](=O)[O-])cc2)c1=O [compound 75] | 3490 nM | > 32 µM
11 | N#Cc1cc2ccc(OCCCO)cc2n(-c2ccc([N+](=O)[O-])cc2)c1=O [compound 76] | 1030 nM | > 100 µM
12 | N#Cc1cc2ccc(-c3cncs3)cc2n(-c2ccc([N+](=O)[O-])cc2)c1=O [compound 77] | 340 nM | 25.8 µM
13 | N#Cc1cc2ccc(-c3cnccn3)cc2n(-c2ccc([N+](=O)[O-])cc2)c1=O [compound 78] | 1320 nM | > 100 µM
14 | N#Cc1cc2ccc(-c3nccs3)cc2n(-c2ccc([N+](=O)[O-])cc2)c1=O [compound 80] | 130 nM | 5.02 µM
15 | N#Cc1cc2ccc(-c3cscn3)cc2n(-c2ccc([N+](=O)[O-])cc2)c1=O [compound 81] | 150 nM | > 100 µM
16 | N#Cc1cc2ccc(-c3ccccn3)cc2n(-c2ccc([N+](=O)[O-])cc2)c1=O [compound 82] | 540 nM | > 100 µM
17 | N#Cc1cc2cc(OCCCN)ccc2n(-c2ccc([N+](=O)[O-])cc2)c1=O [compound 84] | 3640 nM | 15.5 µM
18 | CN(C)CCCOc1ccc2c(c1)cc(C#N)c(=O)n2-c1ccc([N+](=O)[O-])cc1 [compound 85] | 1150 nM | > 32 µM
19 | N#Cc1cc2cc(OCCN)ccc2n(-c2ccc([N+](=O)[O-])cc2)c1=O [compound 86] | 1180 nM | > 32 µM
20 | N#Cc1cc2cc(OC[C@H]3CCCN3)ccc2n(-c2ccc([N+](=O)[O-])cc2)c1=O [compound 87] | 1190 nM | > 32 µM

Row | Compound | EC50 [1] | CC50 (MT4 CMV-EGFP cells)
21 | N#Cc1cc2cc(OC[C@@H]3CCCN3)ccc2n(-c2ccc([N+](=O)[O-])cc2)c1=O [compound 88] | 1410 nM | 6.54 µM
22 | N#Cc1cc2cc(OCCN3CCCC3)ccc2n(-c2ccc([N+](=O)[O-])cc2)c1=O [compound 89] | 1570 nM | > 32 µM
23 | CN(C)CCOc1ccc2c(c1)cc(C#N)c(=O)n2-c1ccc([N+](=O)[O-])cc1 [compound 90] | 890 nM | > 32 µM
24 | N#Cc1cc2ccc(O)cc2n(-c2ccc(Cl)nc2)c1=O [compound 91] | > 32000 nM | > 32 µM
25 | N#Cc1cc2ccc(OCCCN)cc2n(-c2ccc(Cl)nc2)c1=O [compound 92] | 8550 nM | > 32 µM
26 | Cc1ccc2cc(C#N)c(=O)n(-c3ccc([N+](=O)[O-])cc3)c2c1 [compound 95] | > 100000 nM | > 100 µM
27 | N#Cc1ccc2cc(C#N)c(=O)n(-c3ccc([N+](=O)[O-])cc3)c2c1 [compound 96] | 13500 nM | > 100 µM
28 | N#Cc1cc2cc3c(cc2n(-c2ccc(Cl)nc2)c1=O)OCO3 [compound 97] | > 32000 nM | > 32 µM
29 | N#Cc1c(N)c2ccc(Cl)cc2n(-c2ccc([N+](=O)[O-])cc2)c1=O [compound 102] | 850 nM | > 32 µM
30 | N#Cc1c(N)c2ccccc2n(-c2ccc(Cl)nc2)c1=O [compound 104] | 19500 nM | > 32 µM
31 | N#Cc1c(N)c2ccc(Cl)cc2n(-c2ccc(Cl)c(F)c2)c1=O [compound 105] | > 100000 nM | > 100 µM
32 | N#Cc1c(N)c2cc(Cl)ccc2n(-c2ccc([N+](=O)[O-])cc2)c1=O [compound 107] | > 100000 nM | > 100 µM
33 | N#Cc1c(N)c2cc(F)c(Cl)cc2n(-c2ccc([N+](=O)[O-])cc2)c1=O [compound 108] | 900 nM | > 100 µM
34 | COc1cc2c(N)c(C#N)c(=O)n(-c3ccc([N+](=O)[O-])cc3)c2cc1OC [compound 109] | 13400 nM | > 100 µM
35 | N#Cc1c(N)c2ccc(Cl)cc2n(-c2cccc([N+](=O)[O-])c2)c1=O [compound 112] | 5630 nM | > 100 µM
36 | N#Cc1c(N)c2ccc(Cl)cc2n(-c2ccc3nonc3c2)c1=O [compound 113] | 2730 nM | > 100 µM
37 | N#Cc1c(N)c2ccc(C(F)(F)F)cc2n(-c2ccc([N+](=O)[O-])cc2)c1=O [compound 114] | 3940 nM | > 100 µM
38 | Cc1ccc2c(N)c(C#N)c(=O)n(-c3ccc([N+](=O)[O-])cc3)c2c1 [compound 115] | 680 nM | > 100 µM
39 | COc1ccc2c(N)c(C#N)c(=O)n(-c3ccc([N+](=O)[O-])cc3)c2c1 [compound 116] | 780 nM | > 100 µM
40 | N#Cc1c(N)c2cc3c(cc2n(-c2ccc(Cl)nc2)c1=O)OCO3 [compound 117] | > 32000 nM | > 32 µM

Row | Compound | EC50 [1] | CC50 (MT4 CMV-EGFP cells)
41 | N#Cc1c(N)c2ccc(-c3cscn3)cc2n(-c2ccc([N+](=O)[O-])cc2)c1=O [compound 120] | 540 nM | > 100 µM
42 | Cc1ccc(-n2c(=O)c(C#N)c(N)c3ccc(-c4cc[nH]n4)cc32)cc1C#N [compound 124] | 83900 nM | > 100 µM
43 | Cc1ccc(-n2c(=O)c(C#N)c(N)c3ccc(-c4ccsc4)cc32)cc1C#N [compound 125] | 4110 nM | > 100 µM
44 | Cc1ccc(-n2c(=O)c(C#N)c(N)c3ccc(-c4cccs4)cc32)cc1C#N [compound 126] | 5700 nM | > 100 µM
45 | CNc1c(C#N)c(=O)n(-c2ccc([N+](=O)[O-])cc2)c2ncccc12 [compound 128] | 13900 nM | > 32 µM
46 | N#Cc1c(N)c2cccnc2n(-c2ccc([N+](=O)[O-])cc2)c1=O [compound 129] | 18300 nM | > 32 µM
47 | N#Cc1c(NCc2ccccn2)c2ccccc2n(-c2ccc([N+](=O)[O-])cc2)c1=O [compound 131] | 15900 nM | > 100 µM
48 | N#Cc1c(NCCCN2CCCC2)c2ccccc2n(-c2ccc([N+](=O)[O-])cc2)c1=O [compound 132] | 2040 nM | 15.3 µM
49 | N#Cc1c(NCCN)c2ccccc2n(-c2ccc([N+](=O)[O-])cc2)c1=O [compound 133] | 230 nM | 20.1 µM
50 | N#Cc1c(NCCO)c2ccccc2n(-c2ccc([N+](=O)[O-])cc2)c1=O [compound 134] | 13500 nM | 54.6 µM
51 | CNCCNc1c(C#N)c(=O)n(-c2ccc([N+](=O)[O-])cc2)c2ccccc12 [compound 135] | 3370 nM | 53.2 µM
52 | N#Cc1c(NCCCN)c2ccccc2n(-c2ccc([N+](=O)[O-])cc2)c1=O [compound 137] | 3660 nM | 45.1 µM
53 | N#Cc1c(NCCCO)c2ccccc2n(-c2ccc([N+](=O)[O-])cc2)c1=O [compound 138] | 12000 nM | > 100 µM
54 | CN(C)CCCNc1c(C#N)c(=O)n(-c2ccc([N+](=O)[O-])cc2)c2ccccc12 [compound 139] | 2160 nM | 59.5 µM
55 | N#Cc1c(NCCCn2ccnc2)c2ccccc2n(-c2ccc([N+](=O)[O-])cc2)c1=O [compound 140] | > 100000 nM | > 100 µM
56 | CC(=O)NCCNc1c(C#N)c(=O)n(-c2ccc([N+](=O)[O-])cc2)c2ccccc12 [compound 141] | 32200 nM | > 100 µM
57 | CN(C)CCNc1c(C#N)c(=O)n(-c2ccc([N+](=O)[O-])cc2)c2ccccc12 [compound 142] | 3280 nM | 54.7 µM
58 | N#Cc1c(NCC2CCNC2)c2ccccc2n(-c2ccc([N+](=O)[O-])cc2)c1=O (stereo not shown) [compound 143] | 11300 nM | > 100 µM
59 | N#Cc1c(NCCc2c[nH]cn2)c2ccccc2n(-c2ccc([N+](=O)[O-])cc2)c1=O [compound 144] | 3840 nM | > 100 µM
